Data as given in the pKa sets of Baltruschat and Czodrowski (2020).
Where a SMILES comes first, the peptide text is derived from it. [ ]: non-standard residue; d: D form. pGlu = O=C1CC[C@@H](C(=O)O)N1

settings: acidic group

SMILES	pKa
CC(S)C(=O)O (stereo not drawn)	3.35
Oc1ccc(Cl)c2ccccc12	8.64
Oc1cccc(Cl)c1Cl	7.71
O=C(O)Cc1ccc2ccccc2c1	4.26
CC(C)c1ccc2c(c1)CC[C@H]1[C@](C)(C(=O)O)CCC[C@]21C	5.7
Oc1cccc(Cl)c1	8.96
Cc1c(Br)cccc1C(=O)O	3.36
Oc1cccc2c1CCC2	10.2
C[n+]1cc(S)cc2ccccc21	2.4
S=C(Nc1ccc(Cl)c(Cl)c1)c1cccc(Br)c1	9.26
O=P([O-])([O-])C([NH2+]Cc1ccccn1)c1ccccc1O (stereo not drawn)	10.2
CC([NH3+])C(=O)O (stereo not drawn)	2.36
Cc1cc(O)c(C(C)C)cc1Nc1ccc(O)cc1	9.85
Nc1c2ccccc2[nH+]c2cccc(O)c12	5.61
C[C@H](NC(=O)[C@@H]1CCC(=O)N1)C(=O)O ([pGlu]-Ala-OH)	3.6
[NH3+][C@H]1CCC[C@H](C(=O)O)C1	3.85
CNc1nc(SC)nc2[nH]ncc12	11.4
C[NH+](C)Cc1cc(F)cc(C[NH+](C)C)c1O	5.77
O=C(Oc1cccc(Cl)c1)C1c2ccccc2-c2ccccc21	10.2
Oc1ccc2cnncc2c1	7.95
NC(=O)c1ccccc1O	8.61
CC(C)CP(=O)(O)CC(C)C	3.25

SMILES	pKa
C[N+](C)(C)Cc1cccc(O)c1O	8.1
Nc1nc2nc[nH]c2c(O)[nH+]1	3.25
CC(C)(S)[C@@H](C(=O)O)n1cc[nH+]c1Cc1ccccc1	2.81
Cc1ccc(O)c(C)c1	10.6
Cc1ccc(O)c([N+](=O)[O-])c1	7.4
C[NH+]1C[C@@H](C(=O)O)C=C2c3cccc4[nH]cc(c34)C[C@@H]21	3.28
CC1(C)OC(=O)NC1=O	6.15
CCCP(=O)(O)CCC	3.33
O=Cc1ccncc1O	6.77
COc1ccc(C(=S)Nc2ccc(C)cc2)cc1	11.8
[O-]c1ccc2ccccc2[n+]1O	6.88
Cc1ccc(O)c(Cc2cc([N+](=O)[O-])ccc2O)c1	6.34
O=C(O)c1ccc(I)o1	2.94
O=C(O)[C@@H](P)CC[C@H](P)C(=O)O	3.62
O=C(O)c1cc[n+](O)cc1	-0.48
CSc1nc(N)c2[nH]cnc2n1	10.2
CC(C)(C)C(=O)NO	9.59
NS(=O)(=O)C(F)(F)Cl	6.5
CC1=NS(=O)(=O)c2cc(Cl)ccc2N1	8.62
O=Cc1ncnc2nc[nH]c12	8.8
CC(=O)N(C)CC(=O)O	3.16
Oc1c(I)cc(I)c2cccnc12	8

SMILES	pKa
Cc1cnc2c(O)cccc2c1C	10.1
COc1cc(OC)c2c(c1Cl)O[C@]1(C(=O)CC(=O)C[C@@H]1C)C2=O	4.49
CC(=O)c1ccc(NN=C(C#N)C#N)cc1	5.85
[NH3+][C@H]1CONC1=O	4.54
O=C(O)CCc1ccsc1	4.45
O=C(O)/C=C/c1ccco1	4.29
O=C1CCC(=O)C1	4.5
C[NH+](C)CCc1c[nH]c2ccc(O)cc12	9.73
CC(C)CCC(=O)O	4.84
O=Cc1c(O)cccc1Cl	8.26
CNC(=O)CS(=O)(=O)NC(N)=O	4.89
CCC(=O)CC(=O)CC	9.82
CC(C)(Cl)C(=O)O	2.97
O=c1cccc(O)cc1	5.64
C=C(C)[C@H]1C[NH2+][C@H](C(=O)[O-])[C@H]1CC(=O)O	4.43
O=C(O)c1ccc(CCl)cc1	4.13
C[C@H]1CC[C@H](C)C1C(=O)O	4.74
Oc1ccccc1/C=N/c1ncc2nc[nH]c2n1	9.19
O=C(O)C[C@]1(O)C[C@@H]2CC[C@H]1C2	4.46
COc1ccc(C(=S)Nc2ccccc2)cc1	11.3
Cc1nn(-c2ccccc2)c(O)c1Cc1ccccc1	11.8
Oc1cc[nH+]cc1O	3.6

SMILES	pKa
O=Cc1ncccc1O	6.95
O=C(O)c1cccc(C2CC2)c1	4.28
CC(=O)OO	8.19
Cc1ccc(C(=O)C[S+](C)C)cc1	8.9
CN(C)c1cccc(O)c1	9.85
CC(C)c1ccccc1C(=O)O	3.64
O=[N+]([O-])c1cccc(S(=O)O)c1	1.21
CN(O)C(=O)C(C)(C)C	9.94
Cc1ccc(S(=O)(=O)NCC(=O)[O-])cc1	11.4
O=C(O)[C@H]1O[C@@H]1C(=O)O	1.92
Oc1cccc[nH+]1	0.75
O=C(O)/C=C\c1c[nH]c[nH+]1	3
CC(C)(O)C(C(=O)O)c1ccc(C2CCCCC2)cc1 (stereo not drawn)	3.76
CCCCCCCCCCCC(=O)O	4.89
O=[N+]([O-])c1ccc([O-])c(O)c1	10.9
O=P1(O)CCCC1	2.51
Cc1[nH]c2ccccc2c1C(=O)O	5.89
[NH3+]C(CC(=O)[O-])C(=O)NC(CC(=O)O)C(=O)[O-] (stereo not drawn)	4.7
Cc1ccc(S(=O)(=O)NCCC(N)=[NH2+])cc1	9.49
CC1CCCC(C)C1C(=O)O (stereo not drawn)	4.88

same assay, conditions: basic group

SMILES	pKa
NCCC(=O)Oc1ccc([N+](=O)[O-])cc1	9.17
CC(CN(C)C)C(C#N)(c1ccccc1)c1ccccc1 (stereo not drawn)	7.9
COc1ccc(/N=C/N(C)C)cc1	9.35
CSCc1ccccn1	5.4
NCc1ccc(N)cc1	10
Cc1ccc(CCN)cc1	9.78
C=CCSS/C(CCO)=C(/C)N(C=O)Cc1cnc(C)nc1N	5.65
COC(=O)c1ccc(N)cc1	2.44
CCC[NH2+]CCN	7.54
Nc1ncnc2c1cnn2CCO	4.29
C[NH+](C)CCN	6.63
C=CC(C)(CC)N(C)C(C)C (stereo not drawn)	11.3
C=C(C)C(=O)OC(C)CN(CC)CC (stereo not drawn)	8.65
[NH3+]CCNCCO	6.66
N=C(c1ccccc1)c1ccccc1	6.82
CC(C)(N)C#N	5.3
NCCC#CC#CCCC(=O)[O-]	9.27
Cc1cccc(C)n1	6.85
N#Cc1ccc2c(c1)CCN2	2.8
CC(C)/N=C/N(C)c1ccc(-c2c[nH]cn2)cc1	10.4
CNc1nc(SC)nc2[nH]ncc12	3.61
Cc1nc(C(=O)[O-])cs1	3.9
CCN(CC)CCOCCN(CC)CC	10.1
CN1CC=CCN1C	5.7
COC1CC2CCN1CC2 (stereo not drawn)	8.87

SMILES	pKa
Cc1cnc2c(ccc3c(C)ccnc32)c1	5.57
CCCCCNN	6.25
C[NH+](C)CCCNc1c2ccccc2nc2c(Cl)ccc([N+](=O)[O-])c12	5
CN1CCCC1c1cccnc1 (stereo not drawn)	8.06
Oc1ccc2cnncc2c1	3.94
Cc1ccc2ccc3ccc(C)nc3c2n1	6.15
NNC(=O)[C@@H](N)Cc1ccccc1	7.06
CCNC(N)=O	1.19
CNCC(=O)NC	8.28
CCn1cnc2ccccc21	5.66
Cn1c(N)nc(=O)c2[nH]cnc21	4.61
Cc1cc(-c2ccccc2)n[n+](C)c1NCCN1CCOCC1	5.12
CCCCC1CCCN1C (stereo not drawn)	10
C[C@@H]1CNC[C@H](C)N1	9.86
CC(C)N1C[Si](C)(C)O[Si](C)(C)C1	10
O=C1N[C@@H](Cc2c[nH+]c[nH]2)C(=O)N[C@H]1Cc1cnc[nH]1	5.56
O=Cc1ccncc1O	4.05
Cc1cc[nH]n1	3.66
N#Cc1ccccc1N	0.95
[O-]c1ccc([O-])nn1	13
Cc1cnncc1C	4.13
CCC1=NCCC1	7.91
CSc1nc(N)c2[nH]cnc2n1	3.1
NC(=O)c1c2cccc1COCCOCc1ncc([nH]1)COCCOC2	5.72
CN(C)CCCN=C(c1ccccc1)c1ccccc1	9.4

SMILES	pKa
O=Cc1ncnc2nc[nH]c12	2.4
CS[C@H]1CCC[C@@H]1N(C)C	8.85
O=C([O-])[C@@H]1CCCN1	10.6
[O-]c1ccccc1C1=NCCN1	12.6
N[C@@H]1C[C@@H]1[NH3+]	4.2
Oc1c(I)cc(I)c2cccnc12	2.7
CC(C)CN(C)C	9.91
Cc1cnc2c(O)cccc2c1C	5.8
CC1CCCC(C)(C)N1 (stereo not drawn)	11.3
CC(=O)c1ccc(NN=C(C#N)C#N)cc1	-0.77
CCC(C)NCC(C)C (stereo not drawn)	10.8
COc1ccc(N(C)CO)cc1	4.59
COc1nccc2ccccc12	3.05
CC(N)C/C(N)=N/O (stereo not drawn)	9.15
CN(C)/C=N/c1ccc([N+](=O)[O-])cc1	6.71
Cc1cc(-c2ccccc2)nnc1NCCN1CCOCC1	7.05
C=CCN(CC=C)CCCN(CC=C)CC=C	8.8
C(CN1CCOCC1)CN1CCOCC1	7.25
CN1CCC1	10.4
OC1(c2ccco2)CN2CCC1CC2 (stereo not drawn)	9.06
CSc1ccc(N)cc1[N+](=O)[O-]	2.47
CC(=O)C1C(=O)c2ccccc2C1=O	2.88
Cn1cncc1C[C@H](NC(=O)CCN)C(=O)[O-]	9.53
[NH3+]C1CCN(Cc2ccccc2)CC1	7.05
CCC(=O)O[C@@]1(c2ccccc2)CCN(C)C[C@H]1C	8.66

SMILES	pKa
CN(C)CCC/N=C(\c1ccccc1)c1ccccc1O	9.3
Oc1ccccc1/C=N/c1ncc2nc[nH]c2n1	3.38
O=Cc1ncccc1O	3.4
c1ccc(Cc2cc(-c3ccccc3)nnc2NCC[NH+]2CCOCC2)cc1	3.6
CCOc1ccnc([O-])n1	10.7
NCCCc1ccncc1	9.98
CCN(C)NC	6.85
C#CCCN(C)C	8.33
C[C@@H]1C[NH2+][C@@H](C)CN1	5.29
CC(=O)n1ccnc1Cc1[nH]cc[nH+]1	1.93
OCC[NH+](CCO)Cc1nc2ccccc2[nH]1	2.15
Cc1ccc(OC(=O)CCCN(C)C)cc1	9.53
COc1ccc(-c2cnc(-c3ccc([NH3+])cc3)o2)cc1	0.27
CC(C)N/C=[NH+]/c1ccc(-c2cn(C)cn2)cc1	5.39
CN(C)Cc1cc(Br)ccc1[O-]	10.7
C=C1CC1C[C@H](N)C(=O)[O-] (stereo partly drawn)	9.37
NCCC=C(Cl)Cl	9.85
Clc1cncc(Cl)c1	0.55
CC(C)N/C=N/c1ccc(-c2cn(C)cn2)cc1	8.99
CCn1nnc(CC(=O)O)n1	3.45
Cn1cnc2cccc(N)c21	5.79
CC(=O)N(N=C(C)C)C1CCN(C)CC1	8.6
